This note sets out measurements from patent US7112593B2, “N-aryl-substituted cyclic amine derivative and medicine containing the same as active ingredient” (Eisai Co., Ltd., priority 2001, dated 2006).

One experiment addresses T1, Squalene synthase (Rattus norvegicus, UniProt Q02769).
T1 construct: the obtained residue was used as a microsome fraction; from tissue; host or cells: liver microsome fraction of male Sprague-Dawley rat (8 to 9 weeks in age)
T1 sequence (Q02769 1-416): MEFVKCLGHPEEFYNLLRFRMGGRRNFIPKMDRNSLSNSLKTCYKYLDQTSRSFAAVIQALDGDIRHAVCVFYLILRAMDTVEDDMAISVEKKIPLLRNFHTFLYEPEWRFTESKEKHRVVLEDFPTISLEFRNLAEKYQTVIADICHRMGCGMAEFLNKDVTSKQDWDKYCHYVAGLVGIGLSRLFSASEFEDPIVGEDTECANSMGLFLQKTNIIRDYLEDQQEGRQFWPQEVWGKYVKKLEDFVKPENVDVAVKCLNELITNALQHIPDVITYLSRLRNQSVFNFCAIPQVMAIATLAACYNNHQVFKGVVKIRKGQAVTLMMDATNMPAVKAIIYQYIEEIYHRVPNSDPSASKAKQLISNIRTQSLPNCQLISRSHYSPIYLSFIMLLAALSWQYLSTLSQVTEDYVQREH
As to the kind of experiment: Measurement of squalene synthase inhibitive activity by using a rat liver microsome. The format is biochemical. The note with it: [3H]-farnesylpyrophosphoric acid. Here is the method: Measurement of Squalene Synthase Inhibitive Activity by Using a Rat Liver Microsome
(I) The reaction was run on a scale of 500 μl. 200 μl of a solution containing 125 mM tris-hydrochloric acid (pH: 7.3), 2.5 mM magnesium chloride, 5 mM potassium fluoride and 10 mM reduction type nicotinamidoadenine dinucleotide phosphoric acid, 100 μl of the specimen solution with a 5-fold concentration, 100 μl of distilled water and 50 μl of 0.4 to 1 mg/ml rat liver microsome prepared by the following method were mixed.
(II) The above mixture was pre-incubated at 37° C. for 10 minutes and thereafter, 50 μl of 100 μM [^3H]-farnesylpyrophosphoric acid (30 mCi/mmol, NEN) was added to the mixture to start a reaction. The reaction was continued at 37° C. for 10 minutes. 1 ml of ethanol was added to the resulting mixture to terminate the reaction and then 1 ml of distilled water and 3 ml of petroleum ether were added to the reaction solution, which was then shaken for 30 minutes. The water phase was separated from the organic phase, the water phase was frozen at −70° C. in dry ice/methanol and the radio activity of the organic phase was measured using a liquid scintillator. Or the organic phase was evaporated to dryness using nitrogen gas and the residue was dissolved as a marker in 25 μl of chloroform containing squalene, farnesol and cholesterol. This sample was spotted on a TCL plate (Merck) and developed using heptane for 15 to 20 minutes. A band of squalene was cut from the plate to measure the radio activity by using a liquid scintillation counter. The data was expressed by a concentration (IC50) at which 50% of the radio activity of a control group was inhibited.
Preparation Method for Rat Liver Microsome
All the following operations were performed on ice and centrifugation was performed at 4° C. […] The protein concentration of the suspension was quantitated by the Bradford method and the suspension was adjusted to 20 mg/ml with the same solution and stored at −70° C.
(In general: Liver microsomes are a subcellular fraction often used to study metabolism.)

The test system of another experiment is rat liver cell. As to the kind of experiment: Measurement of cholesterol biosynthesis inhibitive activity in a rat liver cell. Type of experiment: cell-based. The note with it: isolated male SD rat liver cells, [1-14C]acetic acid incorporation into free cholesterol. As to the method: Measurement of Cholesterol Biosynthesis Inhibitive Activity in a Rat Liver Cell
A liver cell was isolated from a male SD rat according to a usual method (collagenase perfusion method) and subjected to an experiment.
The isolated liver cells were planted in an amount of 500 μl every well on a Type collagen coated 24 well plate (cell density: 4×10^5 cell/ml). As the cell culture solution, a Williams' E medium (adjusted to pH 7.4) containing 10% FCS, 1 μM insulin, 1 μM dexamethasone, 100 units/ml penicillin and 100 μg/ml streptomycin was used. After the liver cells were incubated in a CO2 incubator for 2 hours, unattached cells were removed and the liver cells were further incubated overnight.
After the culture medium was exchanged, the specimen diluted in a 10% DMSO-90% cell culture solution was added to each well inan amount of 5 μl. DMSO (final concentration: 0.1%) was added toacontrolgroup. A [1-^14C]Aceticacid, sodiumsalt (5 μCi/well) was added to the media 10 minutes after the specimen was added, followed by culturing for further 2 hours. […]
After the development was finished, the TLC plate was subjected to iodine color development. […] This transferred image was analyzed using a BAS 2000 IP Reader and an Imaging analyzer II to measure radio activities contained in the free cholesterol fractions. […]

What is called IC50 is the concentration that inhibits the measured activity by half. Low readings indicate greater potency, high ones weaker potency. Consider `CO[C@@H]1CN(c2ccc(C#CC3(O)CCCNC3)c(Cc3ccccc3)n2)C[C@H]1O` (stereo partly drawn) [Example 1, 3-[2-Benzyl-6-[(3R,4R)-3-hydroxy-4-methoxypyrrolidin-1-yl]-3-pyridyl]ethynyl-3-piperidinol], for which the IC50 against Squalene synthase was 1400 pM; with rat liver cell it was 450 pM. On Squalene synthase, `CO[C@@H]1CN(c2ccc(C#CC3(N)CCCCC3)c(Cc3ccccc3)n2)C[C@H]1O` [Example 7, 1-[2-Benzyl-6-[(3R,4R)-3-hydroxy-4-methoxypyrrolidin-1-yl]-3-pyridyl]ethynylcyclohexylamine] showed a half-inhibitory concentration (IC50) of 530 pM. The compound `CO[C@H]1C(=O)N(c2ccc(C#CC3(N)CCCCC3)c(Cc3ccccc3)n2)C[C@H]1O` [Example 9, 1-[2-Benzyl-6-[(3R,4R)-4-hydroxy-3-methoxy-2-pyrrolidinon-1-yl]-3-pyridyl]ethynylcyclohexylamine] gave an IC50 on Squalene synthase of 780 pM. For `CO[C@H]1CN(c2ccc(C#C[C@@]3(O)CN4CCC3CC4)c(Cc3ccccc3)c2)C[C@H]1OC` [Example 18, (3R)-3-[2-Benzyl-4-[(3R,4S)-3,4-dimethoxypyrrolidin-1-yl)phenyl]ethynyl-3-quinuclidinol], in the experiment with rat liver cell, half-maximal inhibition (IC50) was put at 160 pM. This lies in the sub-nanomolar range.
